Results: US5688507A, “Methods and compositions for inhibiting thrombogenesis” (Hamilton Civic Hospitals Research Development, Inc., priority 1995, dated 1997)

Key:
fibrin I (desAA fibrin) = assay: Solid-phase binding of 125I-thrombin to fibrin-coated microtiter wells (ovalbumin-coated wells as non-specific control); details: increasing concentrations, 2 h at 37° C., ovalbumin-well binding subtracted (FIG. 4)
Method: To examine the ability of various agents to displace thrombin from fibrin, a solid-phase system was developed wherein fibrin was immobilized on the surface of a microtiter plate well. Radiolabeled thrombin was then bound to the fibrin-coated surface, and after washing, the ability of various agents to displace the bound thrombin was evaluated. In this model, the binding of thrombin to immobilized ovalbumin serves as an index of nonspecific binding. The details of the model are as follows: after adding 100 μl of fibrinogen or ovalbumin (each at a concentration of 1 mg/ml) to the wells of microtiter plate, the plates were incubated for 18 hours at 4° C. The wells were then washed three times with 250 μl aliquots of phosphate buffered saline, pH 7.4, containing 0.1% ovalbumin and 6 mg/ml PEG 8,000 (POP buffer). Based on preliminary studies using radiolabeled fibrinogen or ovalbumin, each well bound 1.3±0.2 μg of fibrinogen, or 1.0±0.1 μg of ovalbumin. […] The reptilase completely converted the immobilized fibrinogen to fibrin I because quantitative amounts of fibrinopeptide A (2 mol fibrinopeptide A/mol of bound fibrinogen) was recovered in the supernatant buffer. […] At the end of the incubation period, the wells were washed three times and then counted to determine the concentration of thrombin bound to the fibrin-coated (+) or ovalbumin-coated (.largecircle.) wells (FIG. 4). […]

fibrin = details: stated without experiment; cited from earlier work

- specific binding to fibrin-coated wells (fibrin I (desAA fibrin)): binds to fibrin in a saturable manner
Substance: thrombin
- native binding affinity between fibrin and thrombin in thrombus (fibrin): about 5×10^-5 M^-1
